Experimental data reported in PMC9414910, “Optimized ^68Ga-Labeled Urea-Based PSMA-Targeted PET Tracers for Prostate Cancer” (Pharmaceuticals, 2022).

Tests used:
[1] = Radiotoxicity study in male ICR mice; assay type: in vivo
22Rv1 cells (mild PSMA+) = assay: Cell uptake / binding in 22Rv1 cells; assay type: cell-based, human; conditions: 60 min incubation, 37 °C
Excerpt: Cell lines were kindly provided by the stem cell bank of the Chinese Academy of Sciences. The human prostate cancer epithelial cell lines 22Rv1 (mild PSMA+) and PC-3 (with no PSMA receptor) were used to evaluate the specific cell-binding affinity of the radiotracers, and the results were expressed as percentages of injected activity, IA%/10^6.
Cell Lines and Culture Condition
Cell lines were kindly provided by the stem cell bank, the Chinese Academy of Sciences. The human prostate cancer cell lines 22Rv1 ( mild PSMA positive) and PC3 (PSMA negative) were cultured in RPMI 1640 medium or F12K medium (CORNING, America), supplemented with 10% Fetal Bovine Serum
(GIBCO, The Netherlands) and 1% penicillin-streptomycin (CORNING, America) in a humidified incubator at 37 °C under 5% CO2. Each cell line was passaged when it was at around 80-90% confluence, and harvested using trypsin-ethylenediaminetetraacetic acid (trypsin-EDTA; 0.25% trypsin, 0.02% EDTA, all from KeyGEN BioTECH).
Cells were seeded separately in 24 well plates (1 x 10^5 cells in 1 mL medium/well) and incubated overnight, the medium was changed 2 h before the experiment. For the binding experiments, cells were incubated with novel […]
min, 30 min and 60 min (6 wells/time point). After incubation, the medium was removed and the cells were washed twice with ice-cold phosphate-buffered saline (0.5 mL). Finally, the cells were lysed by NaOH (0.5 M, 0.5 mL). Coincubation of 2-(phosphonomethyl) pentane-1,5-dioic acid […]
(2-PMPA) solution (2 μg/well) and each radiotracer for 60 min was conducted as the blocking experiment. The radioactivity of cells was measured by a γ-counter. The studies were performed in triplicate and the results were reported as the percentage injected activity (IA%/10^6 cells). […]

22Rv1 tumor-bearing mice = assay: Biodistribution in 22Rv1 tumor-bearing mice; conditions: for Uptake Blood, Mean / Uptake Bone, Mean / Uptake Heart, Mean / Uptake Kidney, Mean / Uptake Liver, Mean / Uptake Lung, Mean / Uptake Muscle, Mean / Uptake Spleen, Mean / Uptake Tumor (22Rv1), Mean: 0.74 MBq, n = 3; for Tumor-to-kidney (T/K) ratio / Tumor-to-muscle (T/M) ratio: biodistribution, 22Rv1 tumor-bearing mice; for Clearance profile in the kidneys: within 60 min p.i.
Experimental: (§1) The animal studies were approved by the institutional animal care and use committee of the Chinese PLA General Hospital. Healthy male ICR mice were injected with either a novel radiotracer (37 MBq in 150 μL) or saline (150 μL) for the radiotoxicity evaluation. […] Biodistribution and micro-PET studies were performed on 22Rv1 and PC-3 xenograft models, and 2-PMPA was used as the PSMA blocker (all details are shown in the Supplementary Materials).
BALB/c nude mice (male, 4-6 weeks) were inoculated subcutaneously with […]
100 mm3, the mice underwent biodistribution study and Micro-PET imaging.
The 22Rv1 tumor-bearing mice were injected with each novel radiotracer or […]
[…] Mice were sacrificed at different time points p.i. (10 min, 30 min, 60 min), tumors and interested organs were harvested, weighed and measured by a γ-counter, the results were expressed as the percentage of injected dose per gram (ID%/g).
Table S1. Uptake values for ex vivo tissues of [ 68Ga]Ga-PSMA-Q (0.74 MBq/mice) in 22Rv1 tumor-bearing mice (10, 30 and 60 min p.i., n = 3/time point).

22Rv1 tumors = assay: Micro-PET imaging in 22Rv1 tumor-bearing mice; assay type: in vivo; conditions: 60 min p.i.; for SUVmax of tumor: 22Rv1 tumor, 7.4 MBq; for Tumor-to-muscle ratio (micro-PET): 22Rv1 tumor-bearing mice
Experimental: as §1
Table S9. Tumor-to-mu scle (T/M) ratio and tumor- to-kidney (T/K) rati o of radiotracers at 60 min p.i.
The Mice bearing 22Rv1 and PC-3 (n = 3/group) xenograft tumors were […]
Co-injection with 2-PMPA (50 μ g) and each novel tracer (7.4 MBq in 150 μL) was used for blocking. Then the mice were anesthetized with 3% (v/v) isoflurane and underwent Micro-PET scans with continuous 1% (v/v) isoflurane. The images were acquired at 60 min p.i.. In comparison, […]
into another group of mice (n = 3), and Micro-PET schedule was performed as […]
Imaging was performed on a Super Nova PET/CT scanner using a 100-mm-transaxial field of view for PET and 110-mm for CT.
Three-dimensional ordered-subsets expectation maximization reconstruction

[2] = Blood pharmacokinetics in male ICR mice; assay type: in vivo; conditions: 7.4 MBq i.v., two-compartment model
Experimental: Injection of novel radiotracers or [68Ga]Ga-PSMA-617 or [68Ga]Ga-PSMA-11 […]
mice (5 mice/group), and the blood sample (5 μL) of each mouse was collected by cutting down the tail end at different time points post injection. The radioactivity of blood samples were measured by a γ-counter and the pharmacokinetics data was calculated using the WinNonlin software.
Figure S3. Time-activity curves of the blood samplesafter injection of 7.4 MBq of [68Ga]Ga-PSMA-4PY (A), [68Ga]Ga-PSMA-Q (B),[68Ga]Ga-PSMA-P (C), [68Ga]Ga-PSMA-617 (D), [68Ga]Ga-PSMA-11 (E), [68Ga]Ga-PSMA-Q-1 (F), [68Ga]Ga-PSMA-Q-2 (G) and [68Ga]Ga-PSMA-Q-3 (H).
(1 picture or pasted object on this page, not shown here)

[3] = Partition coefficient, octanol–water system; assay type: physicochemical; conditions: octanol–water (v/v = 1:1), n = 3
Experimental: The partition coefficient of each novel radiotracer was determined using an octanol–water system (v/v = 1:1). The in vitro stability was determined using two systems (PBS and 5% BSA). The Ki value was measured by the NAALADase assay. The 22Rv1 and PC-3 cell lines were used for the cell-binding study and establishment of the tumor-bearing model (detailed information is shown in the Supplementary Materials).
PBS) and reported as log p ± SD. […]

[4] = 60 min p.i., listed as [68Ga]Ga-PSMA-Q

Compound | Uptake in 22Rv1 cells (22Rv1 cells (mild PSMA+)) | Uptake Blood, Mean (22Rv1 tumor-bearing mice; 10 min p.i.) | Uptake Bone, Mean (22Rv1 tumor-bearing mice; 10 min p.i.) | Uptake Heart, Mean (22Rv1 tumor-bearing mice; 10 min p.i.) | Uptake Kidney, Mean (22Rv1 tumor-bearing mice; 10 min p.i.) | Uptake Liver, Mean (22Rv1 tumor-bearing mice; 10 min p.i.) | Uptake Lung, Mean (22Rv1 tumor-bearing mice; 10 min p.i.) | Uptake Muscle, Mean (22Rv1 tumor-bearing mice; 10 min p.i.) | Uptake Spleen, Mean (22Rv1 tumor-bearing mice; 10 min p.i.) | Uptake Tumor (22Rv1), Mean (22Rv1 tumor-bearing mice; 10 min p.i.) | Uptake Blood, Mean (22Rv1 tumor-bearing mice; 30 min p.i.) | Uptake Bone, Mean (22Rv1 tumor-bearing mice; 30 min p.i.) | Uptake Kidney, Mean (22Rv1 tumor-bearing mice; 30 min p.i.) | Uptake Liver, Mean (22Rv1 tumor-bearing mice; 30 min p.i.) | Uptake Lung, Mean (22Rv1 tumor-bearing mice; 30 min p.i.) | Uptake Muscle, Mean (22Rv1 tumor-bearing mice; 30 min p.i.) | Uptake Spleen, Mean (22Rv1 tumor-bearing mice; 30 min p.i.) | Uptake Tumor (22Rv1), Mean (22Rv1 tumor-bearing mice; 30 min p.i.) | Uptake Blood, Mean (22Rv1 tumor-bearing mice; 60 min p.i.) | Uptake Bone, Mean (22Rv1 tumor-bearing mice; 60 min p.i.) | further results
O=C([O-])CN1CCN(CC(=O)[O-])CCN(CC(=O)NCC2CCC(C(=O)NC(Cc3cnc4ccccc4c3)C(=O)NCCCCC(NC(=O)NC(CCC(=O)O)C(=O)O)C(=O)O)CC2)CCN(CC(=O)O)CC1.[68Ga+3] (centres unmarked) [[^68Ga]Ga-PSMA-Q] | 3.75 ± 0.35 IA%/10^6 | 2.62 ID%/g | 0.72 ID%/g | 2.07 ID%/g | 8.79 ID%/g | 2.13 ID%/g | 1.10 ID%/g | 0.70 ID%/g | 2.16 ID%/g | 1.86 ID%/g | 1.04 ID%/g | 0.22 ID%/g | 5.91 ID%/g | 1.14 ID%/g | 0.76 ID%/g | 0.21 ID%/g | 1.73 ID%/g | 2.98 ID%/g | 0.31 ID%/g | 0.21 ID%/g | Survival ([1]; 37 MBq in 150 μL, 14 days): did not die within 14 days; Routine blood tests and H&E staining of the main organs vs control ([1]; 37 MBq in 150 μL, vs saline): no significant differences; Acute radiotoxicity-related adverse events ([1]; toxicity experiments in mice): no acute radiotoxicity-related adverse events were observed; Uptake Heart, Mean (22Rv1 tumor-bearing mice; 30 min p.i.): 0.98 ID%/g; Uptake Heart, Mean (22Rv1 tumor-bearing mice; 60 min p.i.): 0.08 ID%/g; Uptake Liver, Mean (22Rv1 tumor-bearing mice; 60 min p.i.): 0.70 ID%/g; Uptake Lung, Mean (22Rv1 tumor-bearing mice; 60 min p.i.): 0.33 ID%/g; Uptake Muscle, Mean (22Rv1 tumor-bearing mice; 60 min p.i.): 0.13 ID%/g; Uptake Spleen, Mean (22Rv1 tumor-bearing mice; 60 min p.i.): 0.35 ID%/g; Uptake Tumor (22Rv1), Mean (22Rv1 tumor-bearing mice; 60 min p.i.): 4.06 ± 0.36 ID%/g; Uptake Kidney, Mean (22Rv1 tumor-bearing mice; [4]): 2.46 ID%/g; Uptake Tumor (22Rv1), Mean (22Rv1 tumor-bearing mice; [4]): 4.06 ID%/g; Tumor-to-kidney (T/K) ratio (22Rv1 tumor-bearing mice; 60 min p.i.): 1.60 ± 0.08; Tumor-to-muscle (T/M) ratio (22Rv1 tumor-bearing mice; 60 min p.i.): 31.44 ± 2.09; Clearance profile in the kidneys (22Rv1 tumor-bearing mice): washed out rapidly from the kidneys; SUVmax of tumor (22Rv1 tumors): 0.97 ± 0.24; Tumor-to-muscle ratio (micro-PET) (22Rv1 tumors): 59.33 ± 5.72; Elimination half-life [2]: 17.86 ± 1.23 min; Log p pH = 7.4 [3]: −3.24 ± 0.21
O=C([O-])CN1CCN(CC(=O)[O-])CCN(CC(=O)NCCCCC(=O)NC(Cc2cnc3ccccc3c2)C(=O)NCCCCC(NC(=O)NC(CCC(=O)O)C(=O)O)C(=O)O)CCN(CC(=O)O)CC1.[68Ga+3] (centres unmarked) [[^68Ga]Ga-PSMA-Q-1] | 3.38 ± 0.50 IA%/10^6 | 2.88 ID%/g | 0.72 ID%/g | 2.21 ID%/g | 27.12 ID%/g | 2.38 ID%/g | 1.19 ID%/g | 0.81 ID%/g | 2.26 ID%/g | 1.67 ID%/g | 1.31 ID%/g | 0.21 ID%/g | 18.86 ID%/g | 1.23 ID%/g | 0.68 ID%/g | 0.18 ID%/g | 1.79 ID%/g | 2.07 ID%/g | 0.37 ID%/g | 0.15 ID%/g | Uptake Heart, Mean (22Rv1 tumor-bearing mice; 60 min p.i.): 0.54 ID%/g; Uptake Kidney, Mean (22Rv1 tumor-bearing mice; 60 min p.i.): 5.70 ID%/g; Uptake Liver, Mean (22Rv1 tumor-bearing mice; 60 min p.i.): 0.45 ID%/g; Uptake Lung, Mean (22Rv1 tumor-bearing mice; 60 min p.i.): 0.26 ID%/g; Uptake Muscle, Mean (22Rv1 tumor-bearing mice; 60 min p.i.): 0.09 ID%/g; Uptake Spleen, Mean (22Rv1 tumor-bearing mice; 60 min p.i.): 0.45 ID%/g; Uptake Tumor (22Rv1), Mean (22Rv1 tumor-bearing mice; 60 min p.i.): 2.38 ± 0.31 ID%/g; Uptake Tumor (22Rv1), Mean (22Rv1 tumor-bearing mice; 60 min p.i., listed as [68Ga]Ga-PSMA-Q-1): 2.38 ID%/g; Clearance profile in the kidneys (22Rv1 tumor-bearing mice): washed out rapidly from the kidneys; SUVmax of tumor (22Rv1 tumors): 0.86 ± 0.09; Elimination half-life [2]: 21.17 ± 2.01 min; Log p pH = 7.4 [3]: −3.09 ± 0.19
O=C([O-])CN1CCN(CC(=O)[O-])CCN(CC(=O)NCC2CCC(C(=O)NC(Cc3ccc4ccccc4c3)C(=O)NCCCCC(NC(=O)NC(CCC(=O)O)C(=O)O)C(=O)O)CC2)CCN(CC(=O)O)CC1.[68Ga+3] (centres unmarked) [[^68Ga]Ga-PSMA-617, reference compound] | 4.01 ± 0.42 IA%/10^6 | 2.21 ID%/g | 1.17 ID%/g | 2.11 ID%/g | 16.30 ID%/g | 1.89 ID%/g | 1.40 ID%/g | 0.87 ID%/g | 2.11 ID%/g | 2.10 ID%/g | 0.58 ID%/g | 0.38 ID%/g | 25.77 ID%/g | 1.13 ID%/g | 0.95 ID%/g | 0.31 ID%/g | 1.31 ID%/g | 3.36 ID%/g | 0.33 ID%/g | 0.29 ID%/g | Uptake Heart, Mean (22Rv1 tumor-bearing mice; 30 min p.i.): 1.20 ID%/g; Uptake Heart, Mean (22Rv1 tumor-bearing mice; 60 min p.i.): 0.10 ID%/g; Uptake Kidney, Mean (22Rv1 tumor-bearing mice; 60 min p.i.): 29.78 ID%/g; Uptake Liver, Mean (22Rv1 tumor-bearing mice; 60 min p.i.): 0.51 ID%/g; Uptake Lung, Mean (22Rv1 tumor-bearing mice; 60 min p.i.): 0.33 ID%/g; Uptake Muscle, Mean (22Rv1 tumor-bearing mice; 60 min p.i.): 0.15 ID%/g; Uptake Spleen, Mean (22Rv1 tumor-bearing mice; 60 min p.i.): 0.95 ID%/g; Uptake Tumor (22Rv1), Mean (22Rv1 tumor-bearing mice; 60 min p.i.): 4.27 ± 0.10 ID%/g; Uptake Tumor (22Rv1), Mean (22Rv1 tumor-bearing mice; 60 min p.i., listed as [68Ga]Ga-PSMA-617): 4.27 ID%/g; Tumor-to-kidney (T/K) ratio (22Rv1 tumor-bearing mice; 60 min p.i.): 0.14 ± 0.01; Tumor-to-muscle (T/M) ratio (22Rv1 tumor-bearing mice; 60 min p.i.): 28.43 ± 0.84; Clearance profile in the kidneys (22Rv1 tumor-bearing mice): continuously accumulated in the kidneys; SUVmax of tumor (22Rv1 tumors): 0.85 ± 0.14; Tumor-to-muscle ratio (micro-PET) (22Rv1 tumors): 20.43 ± 1.06; Elimination half-life [2]: 28.46 ± 1.64 min; Log p pH = 7.4 [3]: −2.54 ± 0.13
